Assay results reported in patent US10441537B2, “Unit doses, aerosols, kits, and methods for treating heart conditions by pulmonary administration” (InCarda Therapeutics, Inc., priority 2017, dated 2019).
Read-outs that look alike come from different tables or passages of the source.

How the values were obtained:
[1] = Phase 1 study: venous plasma pharmacokinetics; type: in vivo, human; details: for Tmax / Cmax / AUC(0-t) / half-life: venous plasma; for Dist. t1/2α, mean (CV %): both; for half-life: read-out: Elim. t1/2, mean (CV %) (converted)
Experimental: In this study, for inhalation delivery of flecainide, the estimated total lung doses (eTLDs) were calculated to account for losses of flecainide in the inhalation device and losses of flecainide in subjects' mouth and throat. eTLD was thereby used to denote the dose that actually reached the lungs of the subjects. By design, in all nebulizers there can be a residual volume or mass of drug solution that stays in the nebulizer, and there can also be a percentage of the aerosol caught by subject's throat and mouth. For instance, in this study, it was estimated that 30% of the aerosol was lost in subject's throat and mouth.

in vivo = details: male, Yorkshire, pig, iv, 2 mg/kg
Experimental: The studies were carried out in male Yorkshire pigs (n=9) weighing 36±1.0 kg (mean±SEM). The pigs were pre-anesthetized with telazol (4.7 mg/kg, intramuscular) and subsequently further anesthetized using alpha-chloralose (80 mg/kg, IV bolus, followed by 24 mg/kg/h continuous IV infusion). The animals were intubated and ventilated at a constant rate of 12 breaths/min and tidal volume of 400 ml per stroke.
Simultaneous blood samples were drawn from the pigtail catheter positioned in the LV and from a catheter in the jugular vein.
The samples were centrifuged and frozen at −80° C. until drug level determination was performed using a bioanalytical assay method developed by Climax Laboratories, Inc.

healthy volunteers [2] = details: in vivo, iv
Experimental: (§1) 3 cohorts of subjects, in total 34 healthy adult volunteers, were recruited for Part A study.
(§2) Part B was an open label non-randomized crossover in a cohort of 6 evaluable healthy adult volunteers.
In addition, the effects of changing posture from semi-recumbent to seated upright, vice-versa and during inhalation on HR and BP were assessed (Cohort 5).

healthy volunteers [3] = details: human, in vivo
From the text: as §1, §2
Adverse events were monitored and recorded.

In the case of `O=C(NCC1CCCCN1)c1cc(OCC(F)(F)F)ccc1OCC(F)(F)F` (centres unmarked) [flecainide, flecainide acetate], the “Tmax, median (min, max)” value ([1]; IV 2 mg/Kg over 10 min, Cohort 5, n=6, 2 mg/kg) is reported as 1 (0, 60) min after EOI, the “Elim. t1/2β, mean (CV %)” value ([1]; Inhaled 20 mg, n=6) is reported as 9.87 (25) hours and the “Tmax, median (min, max)” value ([1]; Inhaled 30 mg, Cohort 5, n=6) is reported as ≤ 1 min after EOI. The “Tmax, median (min, max)” value ([1]; Inhaled 30 mg, Cohort 5, n=6, listed as Flecainide) was 0.5 (0, 1) min after EOI, the “Elim. t1/2β, mean (CV %)” value ([1]; Inhaled 40 mg, n=8 (post-hoc)) was 9.0 (24) hours and the “Elim. t1/2β, mean (CV %)” value ([1]; Inhaled 60 mg, n=7 (post-hoc)) was 12.0 (14) hours. It also gave a Tmax ([1]; both sexes, human, inhaled or intranasal, 20 mg, Inhaled 20 mg, n=6, from end of inhalation, read-out: Tmax, median (min, max) (converted)) of 1 min, a Cmax ([1]; both sexes, human, inhaled or intranasal, 20 mg, Inhaled 20 mg, n=6, read-out: Cmax, arithmetic mean (CV %)) of 95.1 ng/mL and a Cmax ([1]; both sexes, human, inhaled or intranasal, 40 mg, Inhaled 40 mg, n=8 (post-hoc), read-out: Cmax, mean (CV %)) of 173 ng/mL. It also gave a Tmax ([1]; both sexes, human, inhaled or intranasal, 40 mg, Inhaled 40 mg, n=8 (post-hoc), read-out: Tmax, median (min, max) (converted)) of 1 min, a Cmax ([1]; both sexes, human, inhaled or intranasal, 60 mg, Inhaled 60 mg, n=7 (post-hoc), read-out: Cmax, mean (CV %)) of 232 ng/mL and a Tmax ([1]; both sexes, human, inhaled or intranasal, 60 mg, Inhaled 60 mg, n=7 (post-hoc), read-out: Tmax, median (min, max) (converted)) of 1 min. For the same compound, the Tmax ([1]; both sexes, human, inhaled or intranasal, 60 mg, two subjects each of 40 and 60 mg eTLD cohorts, after the end of inhalation, read-out: Tmax of the four subjects excluded post hoc) was 20 to 240 min, the AUC(0-t) ([1]; both sexes, human, inhaled or intranasal, Inhaled 20 mg, n=6, read-out: AUCLast, mean (CV %)) was 421 ng·h/mL and the AUC(0-t) ([1]; both sexes, human, inhaled or intranasal, Inhaled 40 mg, n=8 (post-hoc), read-out: AUCLast, mean (CV %)) was 685 ng·h/mL. The AUC(0-t) ([1]; both sexes, human, inhaled or intranasal, Inhaled 60 mg, n=7 (post-hoc), read-out: AUCLast, mean (CV %)) was 946 ng·h/mL, the Cmax ([1]; both sexes, human, inhaled, 40 mg, 40 mg eTLD cohort, read-out: Cmax of the two excluded subjects) was 70.9 ng/mL and the Cmax ([1]; both sexes, human, inhaled, 60 mg, 60 mg eTLD cohort, read-out: Cmax of the two excluded subjects) was 82.3 ng/mL. The “Dist. t1/2α, mean (CV %)” value ([1]; human, in vivo, inhaled or intranasal, 20 mg) was 3.86 (34) min, the “Dist. t1/2α, mean (CV %)” value ([1]; human, in vivo, inhaled or intranasal, 40 mg) was 4.19 (39) min and the “Dist. t1/2α, mean (CV %)” value ([1]; human, in vivo, inhaled or intranasal, 60 mg) was 3.47 (17) min. The “estimated t1/2α” value ([1]; human, in vivo) was 3.5 to 4.2 min, the Cmax ([1]; human, inhaled or intranasal, 30 mg, Inhaled 30 mg, Cohort 5, n=6, read-out: Cmax, mean (CV %)) was 120 ng/mL and the half-life ([1]; human, inhaled or intranasal, 30 mg, Inhaled 30 mg, Cohort 5, n=6) was 606 min. It also gave an AUC(0-t) ([1]; human, inhaled or intranasal, Inhaled 30 mg, Cohort 5, n=6, read-out: AUClast, mean (CV %)) of 487 ng·h/mL, a Cmax ([1]; human, iv, 2 mg/kg, IV 2 mg/Kg, Cohort 5, n=6, read-out: Cmax, mean (CV %)) of 749 ng/mL and a half-life ([1]; human, iv, 2 mg/kg, IV 2 mg/Kg, Cohort 5, n=6) of 600 min. The AUC(0-t) ([1]; human, IV 2 mg/Kg, Cohort 5, n=6, read-out: AUClast, mean (CV %)) was 3050 ng·h/mL, the “venous plasma concentration-time curves, inhaled vs IV” value ([1]; inhaled 30 mg eTLD vs IV 2 mg/kg (b559: IV normalized to 30 mg), Cohort 5, 2 mg/kg) was “near-identical” and the “dose proportionality of venous plasma concentrations” value ([1]; inhaled 20, 30 or 40 mg eTLD) was “near dose proportionality”. The concentration at 30 min (in vivo; LV plasma level) was 497 ± 190 ng/mL, the concentration at 30 min (in vivo; Venous plasma level) was 519 ± 196 ng/mL and the “decrease in systolic pressure” value (healthy volunteers [2]) was ≤ 18 mmHg. For the same compound, the “maximal increase in HR” value (healthy volunteers [2]) was 7 bpm, the “transient decrease in systolic pressure” value (healthy volunteers [2]) was 9 mmHg and the HR (healthy volunteers [2]; 2 mg/kg) was “An increase in HR was observed”. The “systolic and diastolic BP” value (healthy volunteers [2]; 2 mg/kg) was “Decreases in systolic and diastolic BP were observed”, the “Adverse Event: Cough” value (healthy volunteers [3]; both) was 1 and the “Adverse Event: Lightheadedness” value (healthy volunteers [3]; both) was 1. For the same compound, the “study-drug related Cough” value (healthy volunteers [3]; both) was 3 events in 3/25 subjects (12%), the “study-drug related Dry mouth” value (healthy volunteers [3]; both) was 3 events in 3/25 subjects (12%) and the “study-drug related Dysgeusia” value (healthy volunteers [3]; both) was 2 events in 2/25 subjects (8%). For the same compound, the “study-drug related Dyspnoea (shortness of breath)” value (healthy volunteers [3]; both) was 4 events in 4/25 subjects (16%), the “study-drug related Oropharyngeal discomfort” value (healthy volunteers [3]; both) was 10 events in 10/25 subjects (40%) and the “study-drug related dizziness” value (healthy volunteers [3]; both) was 3 events in 3/25 subjects (12%). The “study-drug related headache” value (healthy volunteers [3]; both) was 3 events in 2/25 subjects (8%), the “average events per subject” value (healthy volunteers [3]) was 2 and the “probably study-drug related oropharyngeal discomfort, subjects” value (healthy volunteers [3]) was 4. The “study-drug related paresthesia oral” value (healthy volunteers [3]) was 3 events in 3 subjects, the “average events per subject” value (healthy volunteers [3]; iv) was 7 and the “hypotension (systolic BP) for which the IV infusion had to be interrupted” value (healthy volunteers [3]; iv) was < 65 mmHg. For the same compound, the “severe and moderate intensity AEs probably related to the study drug” value (healthy volunteers [3]; iv) was 1 severe and 2 moderate intensity AEs and the “study-drug related application site coldness” value (healthy volunteers [3]; iv) was 2 occurrences in 2 subjects.
